Reference: patent US20240124408A1 (Sanofi, priority 2020, published 2024)
Structures can show the parent of a compound that is named as a salt.

Experiments:
Assay type in all cases: cell-based
human TRPM8 [1] = molecular target: T1, human TRPM8 (Homo sapiens, UniProt Q7Z2W7); assay: In vitro human TRPM8 automated patch-clamp assay (SyncroPatch 384PE, CHO cells); details: CHO cells expressing human TRPM8, 28° C.
T1 construct: expressed in transfected cells; host or cells: CHO (p658 mammalian expression vector)
T1 sequence (Q7Z2W7 whole entry): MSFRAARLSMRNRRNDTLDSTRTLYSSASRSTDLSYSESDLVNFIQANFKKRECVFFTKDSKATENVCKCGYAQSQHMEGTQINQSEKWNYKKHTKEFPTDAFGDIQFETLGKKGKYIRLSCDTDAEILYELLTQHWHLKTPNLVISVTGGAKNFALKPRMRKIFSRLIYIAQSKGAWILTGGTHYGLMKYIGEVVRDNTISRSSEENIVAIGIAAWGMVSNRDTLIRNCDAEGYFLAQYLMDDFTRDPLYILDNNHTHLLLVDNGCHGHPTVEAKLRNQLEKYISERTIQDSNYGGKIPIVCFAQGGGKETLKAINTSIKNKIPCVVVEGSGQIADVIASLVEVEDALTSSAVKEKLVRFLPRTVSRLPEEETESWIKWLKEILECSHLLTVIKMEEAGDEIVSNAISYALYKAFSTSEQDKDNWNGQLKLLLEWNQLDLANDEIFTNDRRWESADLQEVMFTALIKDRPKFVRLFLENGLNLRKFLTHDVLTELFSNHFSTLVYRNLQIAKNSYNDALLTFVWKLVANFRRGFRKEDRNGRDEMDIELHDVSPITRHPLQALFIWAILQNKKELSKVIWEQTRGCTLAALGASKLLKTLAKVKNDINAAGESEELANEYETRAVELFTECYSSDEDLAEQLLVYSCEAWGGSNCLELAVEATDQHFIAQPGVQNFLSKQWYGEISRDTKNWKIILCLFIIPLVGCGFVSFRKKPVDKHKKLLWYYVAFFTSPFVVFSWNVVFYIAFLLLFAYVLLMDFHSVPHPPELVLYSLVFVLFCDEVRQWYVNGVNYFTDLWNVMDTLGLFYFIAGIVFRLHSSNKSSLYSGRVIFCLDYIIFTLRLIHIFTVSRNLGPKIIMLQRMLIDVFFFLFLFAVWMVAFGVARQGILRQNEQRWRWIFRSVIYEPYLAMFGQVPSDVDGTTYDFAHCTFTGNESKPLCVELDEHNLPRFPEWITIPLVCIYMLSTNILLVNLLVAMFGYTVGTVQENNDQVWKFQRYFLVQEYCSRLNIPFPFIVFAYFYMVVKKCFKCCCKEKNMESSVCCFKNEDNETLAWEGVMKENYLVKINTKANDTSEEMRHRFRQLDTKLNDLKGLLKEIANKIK
Protocol: (§1) In Vitro Pig and Human TRPM8 Automated Patch-Clamp Assays
(§2) Automated whole-cell recordings of compound effects were performed on the SyncroPatch 384PE (Nanion Technologies, Munich, Germany) incorporated into a Biomek FX pipetting robot (Beckman Coulter, Jersey City, NJ, USA) using the same engineered CHO cell lines expressing human or pig TRPM8 channels. Data acquisition and analysis were performed with the proprietary software PatchControl 384 and DataControl 384, respectively (Nanion Technologies, Munich, Germany). All recordings were carried out using planar borosilicate glass patch clamp chips in a 384-microtiter plate format with patch hole resistances of 2-4 MO. For recordings, standard intracellular solution was used containing (in mM): 130 KF, 4 NaCl, 1 MgCl2, 0.5 CaCl2, 10 HEPES and 10 EGTA/KOH (pH 7.2) and standard extracellular solution contained in mM: 150 NaCl, 4 KCl, 0.5 CaCl2, 1 MgCl2 and 10 HEPES (pH 7.3).
(§3) Prior to the electrophysiological measurements, cells were harvested using Accutase (GIBCO, Fisher Scientific) and resuspended in warmed extracellular solution. The cell suspension was kept in the dedicated cell reservoir at 28° C. at a 1 million/ml cell density and shaken at 500 rounds per min (rpm). Experiments were performed at 28° C. throughout. Cells were distributed in high resistance 4-holes-per-well Nanion chips where they were caught on the patch holes by application of a −80 mbar pressure. The cell membrane was ruptured to obtain the whole-cell configuration with a pressure pulse of −250 mbar for 2 seconds. Voltage protocols were constructed using PatchControl 384. The cells were held at a holding potential of −60 mV and TRPM8 currents were recorded using a ramp protocol from −80 to +80 mV every 5 seconds before and after compound addition. Resulting currents were recorded at both −80 and +80 mV and current kinetics were exported and analyzed. From each plate, control wells with 200 μM menthol were recorded to validate the assay. One concentration of compound was applied to each of the other wells. For each concentration, compound response was determined by subtracting the baseline current recorded before compound addition from the maximum peak elicited currents obtained after compound addition. Then, each compound response was normalized to control condition without compound and maximum current (Emax) obtained for each compound. Nanion DataControl 384 software plotted current response for each compound concentration and was able to calculate an EC50 value for each active compound.

pig TRPM8 [2] = molecular target: T2, pig TRPM8 (Sus scrofa, UniProt F1SM15); assay: In vitro pig TRPM8 automated patch-clamp assay (SyncroPatch 384PE, CHO cells); details: CHO cells expressing pig TRPM8, 28° C.
T2 construct: expressed in transfected cells; host or cells: CHO (pcDNA5/FRT/TO vector; hygromycin B and blasticidin selection)
T2 sequence (F1SM15 1-1104): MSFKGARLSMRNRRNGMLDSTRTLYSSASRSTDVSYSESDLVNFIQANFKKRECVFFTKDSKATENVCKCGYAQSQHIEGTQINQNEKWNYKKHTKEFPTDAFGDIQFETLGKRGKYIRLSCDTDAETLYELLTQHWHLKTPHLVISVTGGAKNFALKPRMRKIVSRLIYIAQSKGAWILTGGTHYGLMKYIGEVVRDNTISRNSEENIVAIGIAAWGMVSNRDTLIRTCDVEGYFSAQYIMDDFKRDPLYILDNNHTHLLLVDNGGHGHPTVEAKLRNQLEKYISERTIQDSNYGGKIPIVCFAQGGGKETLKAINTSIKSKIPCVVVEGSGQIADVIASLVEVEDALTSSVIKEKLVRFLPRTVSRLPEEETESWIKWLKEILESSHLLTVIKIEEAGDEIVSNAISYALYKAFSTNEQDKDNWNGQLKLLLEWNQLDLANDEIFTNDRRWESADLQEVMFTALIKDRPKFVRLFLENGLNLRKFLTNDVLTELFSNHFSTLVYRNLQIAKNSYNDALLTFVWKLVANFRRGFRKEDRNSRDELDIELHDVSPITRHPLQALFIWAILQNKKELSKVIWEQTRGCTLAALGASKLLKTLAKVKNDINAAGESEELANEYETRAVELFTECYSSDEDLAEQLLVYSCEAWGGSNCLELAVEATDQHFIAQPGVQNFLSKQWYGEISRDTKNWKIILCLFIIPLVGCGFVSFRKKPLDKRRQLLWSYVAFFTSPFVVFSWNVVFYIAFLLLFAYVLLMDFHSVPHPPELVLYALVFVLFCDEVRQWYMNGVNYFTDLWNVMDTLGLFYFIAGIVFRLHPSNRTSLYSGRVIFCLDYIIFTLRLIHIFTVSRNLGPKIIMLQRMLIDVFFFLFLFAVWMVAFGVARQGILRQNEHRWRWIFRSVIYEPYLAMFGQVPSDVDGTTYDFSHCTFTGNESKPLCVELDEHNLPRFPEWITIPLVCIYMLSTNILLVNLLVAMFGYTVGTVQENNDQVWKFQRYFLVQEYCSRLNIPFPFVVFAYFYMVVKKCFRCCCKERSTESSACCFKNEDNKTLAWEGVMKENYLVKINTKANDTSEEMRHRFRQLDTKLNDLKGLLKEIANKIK
Protocol: as §1, §2, §3

human TRPM8 [3] = molecular target: T1, human TRPM8; assay: In vitro human TRPM8 fluorescence calcium flux assay (recombinant CHO cells, Fluo4-AM, FDSS6000); details: recombinant CHO cells expressing human TRPM8; menthol-related EC50, normalized to 100 μM menthol
In short: (§4)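 CHO cells stably expressing pig or human TRPM8, loaded with 2 μM Fluo4-AM in HBSS/20 mM HEPES/0.1% BSA/2.5 mM probenecid for 1 h at RT. Intracellular calcium read kinetically for 3 min after compound addition. EC50 from sixteen-point curves, normalized to 100 μM menthol maximal response.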

pig TRPM8 [4] = molecular target: T2, pig TRPM8; assay: In vitro pig TRPM8 fluorescence calcium flux assay (recombinant CHO cells, Fluo4-AM, FDSS6000); details: recombinant CHO cells expressing pig TRPM8; menthol-related EC50, normalized to 100 μM menthol
In short: as §4

Row | Compound | EC50 (human TRPM8 [1]) [nM] | EC50 (pig TRPM8 [2]) [nM] | EC50 (human TRPM8 [3]) [nM] | EC50 (pig TRPM8 [4]) [nM]
1 | CC(C)[C@@H]1CC[C@@H](C)C[C@@]1(O)C(=O)NCC(NC(=O)[C@H](C)N)c1ccccc1 (single isomer, unassigned) [Example 182] | 66 | 52 | 3.7 | 3.8
2 | CC(C)[C@@H]1CC[C@@H](C)C[C@@]1(O)C(=O)NCCc1ccccc1OCCN [Example 6, (1S,2S,5R)—N-(2-(2-aminoethoxy)phenethyl)-1-hydroxy-2-isopropyl-5-methylcyclohexane-1-carboxamide] | 72 | 237 | 0.3 | 0.5
3 | CC(C)[C@@H]1CC[C@@H](C)C[C@@]1(O)C(=O)NCCc1ccccc1OCCO [Example 7, (1S,2S,5R)-1-hydroxy-N-(2-(2-hydroxyethoxy)phenethyl)-2-isopropyl-5-methylcyclohexane-1-carboxamide] | 2800 | 6190 | 8.5 | 8.1
4 | CC(C)[C@@H]1CC[C@@H](C)C[C@@]1(O)C(=O)NCCc1ccccc1OCC(O)CO (stereo partly drawn) [Example 9, (1S,2S,5R)—N-(2-(2,3-dihydroxypropoxy)phenethyl)-1-hydroxy-2-isopropyl-5-methylcyclohexane-1-carboxamide] | 2400 | 4100 | 8.8 | 6.3
5 | CC(C)[C@@H]1CC[C@@H](C)C[C@@]1(O)C(=O)NCCc1cccc(OCC(O)CO)c1 (stereo partly drawn) [Example 10, (1S,2S,5R)—N-(3-(2,3-dihydroxypropoxy)phenethyl)-1-hydroxy-2-isopropyl-5-methylcyclohexane-1-carboxamide] | 4130 | 4800 | 21.4 | 9.7
6 | CC(C)[C@@H]1CC[C@@H](C)C[C@@]1(O)C(=O)NCCc1ccccc1OCC[N+](C)(C)C [Example 11, 2-(2-(2-((1S,2S,5R)-1-hydroxy-2-isopropyl-5-methylcyclohexane-1-carboxamido)ethyl)phenoxy)-N,N,N-trimethylethan-1-aminium iodide] | 3700 | 4900 | 148 | 298
7 | CC(C)[C@@H]1CC[C@@H](C)C[C@@]1(O)C(=O)NCCc1cccc(CO)c1 [Example 15, (1S,2S,5R)-1-hydroxy-N-(3-(hydroxymethyl)phenethyl)-2-isopropyl-5-methylcyclohexane-1-carboxamide] | 1430 | 1510 | 3 | 2.1
8 | CC(C)[C@@H]1CC[C@@H](C)C[C@@]1(O)C(=O)NCCc1cccc(C(=O)OCCN)c1 [Example 16, 2-aminoethyl 3-(2-((1S,2S,5R)-1-hydroxy-2-isopropyl-5-methylcyclohexane-1-carboxamido)ethyl) benzoate hydrochloride] | 1290 | 2370 | 16 | 13
9 | COC(=O)[C@@H](N)Cc1ccccc1CCNC(=O)[C@]1(O)C[C@H](C)CC[C@H]1C(C)C [Example 19, methyl (S)-2-amino-3-(2-(2-((1S,2S,5R)-1-hydroxy-2-isopropyl-5-methylcyclohexane-1-carboxamido)ethyl)phenyl)propanoate] | 1700 | 1520 | 7.1 | 19.9
10 | COC(=O)[C@@H](N)Cc1cccc(CCNC(=O)[C@]2(O)C[C@H](C)CC[C@H]2C(C)C)c1 [Example 20, methyl (S)-2-amino-3-(3-(2-((1S,2S,5R)-1-hydroxy-2-isopropyl-5-methylcyclohexane-1-carboxamido)ethyl)phenyl)propanoate] | 1400 | 1420 | 3.2 | 6.6
11 | COC(=O)CO[C@H](CNC(=O)[C@]1(O)C[C@H](C)CC[C@H]1C(C)C)c1ccccc1 [Example 57, methyl 2-((S)-2-((1S,2S,5R)-1-hydroxy-2-isopropyl-5-methylcyclohexane-1-carboxamido)-1-phenylethoxy)acetate] |  | > 10000 | 254 | 219
12 | CC(C)[C@@H]1CC[C@@H](C)C[C@@]1(O)C(=O)N[C@H](CCO)c1ccccc1 [Example 86, (1S,2S,5R)-1-hydroxy-N—((R)-3-hydroxy-1-phenylpropyl)-2-isopropyl-5-methylcyclohexane-1-carboxamide] |  | > 10000 | 547 | 749
13 | COC(=O)c1ccccc1CCNC(=O)[C@]1(O)C[C@H](C)CC[C@H]1C(C)C [Example 106, methyl 2-(2-((1S,2S,5R)-1-hydroxy-2-isopropyl-5-methylcyclohexane-1-carboxamido)ethyl)benzoate] |  | > 10000 | 29.3 | 23.2
14 | CC(C)[C@@H]1CC[C@@H](C)C[C@@]1(O)C(=O)NCCO [Example 110, (1S,2S,5R)-1-hydroxy-N-(2-hydroxyethyl)-2-isopropyl-5-methylcyclohexane-1-carboxamide] |  | > 10000 | 1640 | 639
15 | CC(C)[C@@H]1CC[C@@H](C)C[C@@]1(O)C(=O)NCC1COc2ccccc21 (stereo partly drawn) [Example 162, (1S,2S,5R)-N-(2,3-dihydrobenzofuran-3-ylmethyl)-1-hydroxy-2-isopropyl-5-methyl-cyclohexanecarboxamide] |  | 1400 | 5.3 | 4
16 | COc1ccc(NC(=O)[C@]2(O)C[C@H](C)CC[C@H]2C(C)C)cc1 [Example 174, (1S,2S,5R)-1-hydroxy-N-(4-methoxyphenyl)-5-methyl-2-propan-2-ylcyclohexane-1-carboxamide] |  | 2170 | 119 | 33.4

Continued, values first:

Row | EC50 (human TRPM8 [1]) [nM] | EC50 (pig TRPM8 [2]) [nM] | EC50 (human TRPM8 [3]) [nM] | EC50 (pig TRPM8 [4]) [nM] | Compound
17 | 3300 | 3250 | 90.3 | 47.6 | CC(C)[C@@H]1CC[C@@H](C)C[C@@]1(O)C(=O)NCC(CO)c1ccccc1 (single isomer, unassigned) [Example 89]
18 | 3000 | 2000 | 41.8 | 14.4 | CC(C)[C@@H]1CC[C@@H](C)C[C@@]1(O)C(=O)NCC(CO)c1ccccc1 (single isomer, unassigned) [Example 90]
19 | 120 | 20 | 2.7 | 2.8 | CC(C)[C@@H]1CC[C@@H](C)C[C@@]1(O)C(=O)NCC(NC(=O)CN)c1ccccc1 (single isomer, unassigned) [Example 183]
20 | 600 | 567 | 14.5 | 28.1 | CC(C)[C@@H]1CC[C@@H](C)C[C@@]1(O)C(=O)NCC(NC(=O)CN)c1ccccc1 (single isomer, unassigned) [Example 184]
21 | 450 | 596 | 1.2 | 0.7 | CC(C)[C@@H]1CC[C@@H](C)C[C@@]1(O)C(=O)NCC(=O)c1ccccc1 [Example 2, (1S,2S,5R)-1-hydroxy-2-isopropyl-5-methyl-N-(2-oxo-2-phenylethyl)cyclohexane-1-carboxamide]
22 | 1120 | 9910 | 36.8 | 35.5 | CC(=O)O[C@H](CNC(=O)[C@]1(O)C[C@H](C)CC[C@H]1C(C)C)c1ccccc1 [Example 3, (S)-2-((1S,2S,5R)-1-hydroxy-2-isopropyl-5-methylcyclohexane-1-carboxamido)-1-phenylethyl acetate]
23 | 950 | 478 | 1.3 | 0.7 | CC(C)[C@@H]1CC[C@@H](C)C[C@@]1(O)C(=O)NCC(F)c1ccccc1 (stereo partly drawn) [Example 5, (1S,2S,5R)—N-(2-fluoro-2-phenylethyl)-1-hydroxy-2-isopropyl-5-methylcyclohexane-1-carboxamide]
24 |  | > 10000 | 3250 | 766 | CC(C)[C@@H]1CC[C@@H](C)C[C@@]1(O)C(=O)NCC(=O)NCc1ccccc1 [Example 30, (1S,2S,5R)—N-(2-(benzylamino)-2-oxoethyl)-1-hydroxy-2-isopropyl-5-methylcyclohexane-1-carboxamide]
